Source: patent US20130273138A1, “TRANSDERMAL FORMULATIONS OF GERANYLGERANYLACETONE” (COYOTE PHARMACEUTICALS, INC., priority 2012, published 2013)

Assay: Dissolution of GGA patch (HPLC refractive index detector)
Type: physicochemical
Conditions: 3.2 cm×3 cm patch, 10 mg GGA; 24 hour time point; acetonitrile as the media
Experimental: The assembly was then clipped to two pins to sink the membrane-patch assembly to the bottom of the vessel and remains at the fixed position.
Two chromatograms (one standard of 0.05 mg/mL and one sample taken at 24 hour time point) in FIGS. 1A and 1B illustrate the dissolution results. Nearly all GGA in the membrane was released according to this specific dissolution setting (i.e., acetonitrile as the media).

GGA released from patch (dissolution): Nearly all
Structure (SMILES): CC(=O)CC/C=C(\C)CC/C=C(\C)CC/C=C(\C)CCC=C(C)C [GGA, Geranylgeranylacetone]
